Tested on: Fusarium crown rot (FCR) of wheat, Fusarium pseudograminearum G14LY24-2
Experiment: Field effect of seed coating on controlling FCR of wheat (inoculated field disease nurseries)
Type: in vivo
Conditions: for Average disease rating: grading 0-5
Experimental: Wheat grains are soaked for 12 h, sterilized for 60 min, allowed to stand for two days, sterilized for 30-60 min, and cooled for later use. Fusarium pseudograminearum G14LY24-2 was selected on a PDA plate. After growing for three days, marginal hyphae were picked to grow on a fresh PDA plate. After three days, the hyphal pellets were plated into a wheat grain polyethylene bag with sterilized wheat grains. The hyphal pellets grew at room temperature for two weeks until the fungi grew all over wheat grains, and stored in a refrigerator at 4° C. after air-drying.
Disease nurseries were constructed in a 1:1 ratio of seed quantity to inoculum volume ratio. The inoculation was located 3-5 cm above the seed. The seeds to be sown and the inoculum were mixed first, and after mixing well, well-mixed sowing materials were sown by a planter.
Selected C. globosum strains were activated on a fresh PDA, and hyphal pellets were picked into 9 cm PDA Petri dishes. After 15 days, perithecia were ground in sterile water using a spreading rod, and ascospore suspension was controlled at about 100 mL, with a concentration of 1.0-2.0×10^7 ascospores/mL; in case of a low concentration, the suspension was centrifuged at 3,000 rpm for 5 min, dewatered, and resuspended. 75 mL of fungal suspension (approximately 1.3×10^7 ascospores/mL) was mixed with 25 mL of 4 wt % carboxymethyl cellulose salt solution into 100 mL of fungal suspension with 1% carboxymethyl cellulose salt (approximately 1.0×10^7 ascospores/mL). 100 mL of 1×10^7 ascospores/mL fungal suspension with 1% carboxymethyl cellulose salt was mixed well with 5 kg of wheat seeds. Chaetomium globosum strain 12XP1-2-3-coated seeds were rinsed and spread on a plate to count spores on the seed surface, which was 5.0-5.3×10^4 ascospores per seed. The wheat cultivar in 2018 was “Bainong 207”, the wheat cultivar in 2019 was “Aikang 58”, the control agent was 30 g/L difenoconazole, and the seeds were dressed in an agent-to-seed ratio of 1:333.
Field sampling method: At the seedling stage, the emergence rate was investigated, and the plant height, tap root length, fresh weight, dry weight, and colonization ability of C. globosum were measured; at the tillering stage, the morbidity was investigated, and the plant height, tap root length, fresh weight, dry weight, tiller number, and colonization ability of C. globosum were measured; the morbidity was investigated at the jointing stage; the white ear rate was investigated at the filling stage. The method was to investigate the number of white heads and total number of ears per 1 m2 plot and calculate the white ear rate of the plot. The diseased stem rate was investigated at the maturing stage; 20 stems were sampled at five points in each plot, a total of 100 stems for each treatment were brought back to the laboratory, and leaf sheaths were removed thoroughly to determine the disease rating.
The grading standard for adult stage was as follows: 0=no disease; 1=browning in the first node; 2=browning in the second node; 3=browning in the third node; 4=browning in the peduncle or white ears at the filling stage; and 5=diseased plant without ear bearing. The yield was determined during harvest.

[1] = “Aikang 58” in Wenxian in 2019, wheat filling stage
[2] = “Bainong 207” in Kaifeng in 2018, wheat filling stage

Structure (SMILES): CC1COC(Cn2cncn2)(c2ccc(Oc3ccc(Cl)cc3)cc2Cl)O1 (stereo not drawn) [Difenoconazole, difenoconazole]
- Disease index [1]: 9.4
- Diseased stem rate % [1]: 26.0%
- Average disease rating [1]: 0.5
- Disease index [2]: 12.9
- Diseased stem rate % [2]: 30.0%
- Average disease rating [2]: 0.6
